Measured values as given in publication PMC5155426, “Organic Redox Species in Aqueous Flow Batteries: Redox Potentials, Chemical Stability and Solubility” (Scientific Reports, 2016).
Converted amounts (≈) assume the structure as drawn. “And” between values parts separate entries of the source, which are not always exact repeats. Equal entries are not always repeated.

Assays:
[1] = Cyclic voltammetry: formal redox potential, peak current ratio, electrochemical reversibility; assay type: physicochemical; conditions: for formal redox potential E0': midpoint of CV peak potentials; for pH dependence (slope) of E0': pH 0 to pH 13; for change of E0' from acidic (pH 0) to alkaline (pH 13): 13 pH units
Method: The investigated compounds were used as-purchased and without any purification. […] For each series of CVs, a freshly polished electrode was used. The CVs for soluble compounds in 1 mM concentration were recorded in a glass beaker with a customized lid in nitrogen purged solutions of three different pHs, namely pH 0 (1 M H2SO4), pH 7 (0.5 M phosphate buffer) and pH 13 (1 M NaOH). The pH of the NaOH solution is taken as 13 to account for carbonization of the solution with exposure to air. A background CV was recorded before each CV experiment to exclude background contaminations. The CVs of insoluble compounds in 1 M H2SO4, or 0.5 M phosphate buffer were recorded as follows: 6 mL of the supporting electrolyte was mixed with approximately 4 mL of acetone, and then a small amount of the quinone was added so that its concentration was around 1 mM.
Each CV was analyzed in terms of peak potentials and peak currents. Peak currents were determined by subtracting a polynomial fit of the background from the recorded current as exemplified in Supplementary, S1. A plot of the absolute values of the peak currents to the square root of the scan rate was constructed and, when reasonable, a linear fit included to evaluate the electrochemical (Nernstian) reversibility of the electrochemical reaction. The peak current Ip for reversible reactions are given by equation (1).
Where F is the Faraday constant, R the gas constant, T the temperature, n the number of electron transferred, A the area of the electrode, DOthe diffusion coefficient and CO^*the bulk concentration of the analyte and v the scan rate. The peak current ratio is expected to be close to one for reversible species. The formal redox potential (E^0’), which is the adjusted form of the standard redox potential, where effects of the medium is taken into account, is reported here as the midpoint potential between the two peak potentials in the CV[24]. All half-cell potentials in this work refer to the normal hydrogen electrode (VNHE).

[2] = Aqueous solubility estimation (OECD test #105) in 1 M supporting electrolytes
Method: After each addition the test tube was ultrasonicated and/or shaken vigorously using a Vortex Generator for at least 10 minutes at room temperature. Then the tube was inspected visually for undissolved sample and the addition of supporting electrolyte solution continued until the sample seemed just dissolved. The volumes just before and after full dissolution are used for calculating the solubility interval (Supplementary, S4 and S5) and the solubility is estimated as the average between the two.

[3] = 1 M H2SO4 supporting electrolyte prepared from MilliQ water, aqueous buffer, thermodynamic from solid, Solubility, 1 M H2SO4, room temperature, interval just after / before full dissolution
[4] = 1 M KCl supporting electrolyte prepared from MilliQ water, saline or isotonic, thermodynamic from solid, Solubility, 1 M KCl, room temperature
[5] = pH 0 (1 M H2SO4), about 1 mM, acetone added for insoluble compounds
[6] = 1 M KOH supporting electrolyte prepared from MilliQ water, aqueous buffer, thermodynamic from solid, Solubility, 1 M KOH, room temperature
[7] = water / supporting electrolytes as worded
[8] = aqueous buffer, thermodynamic from solid, Solubility
[9] = saline or isotonic, thermodynamic from solid, Solubility

SMILES | Electrochemical reversibility ([1]; pH 13) | Peak current ratio ([1]; pH 13) | solubility [2, 3] [mM] | solubility [2, 4] [mM] | formal redox potential E0' [1, 5] | Electrochemical reversibility ([1]; pH not specified) | formal redox potential E0' ([1]; pH 7 (0.5 M phosphate buffer)) | formal redox potential E0' ([1]; pH 13 (1 M NaOH)) | Peak current ratio ([1]; pH 0) | Peak current ratio ([1]; pH 7) | solubility [2, 6] [mM] | further results
O=C1c2cccc(O)c2C(=O)c2cccc(O)c21 [AQDH(1,5), 1,5-dihydroxy-9,10-anthraquinone] | Quasireversible | 0.79(9) | < 10 | < 10 |  |  |  |  |  |  |  | 
Nc1c(S(=O)(=O)[O-])cc(Br)c2c1C(=O)c1ccccc1C2=O.[Na+] [AQS(2)NBr, 1-amino-4-bromo-9,10-anthraquinone-2-sulfonate sodium] |  |  |  |  | 0.14(4) VNHE | Quasireversible |  |  |  |  |  | 
O=C1c2ccc(O)c(O)c2C(=O)c2c(O)ccc(O)c21 [AQTH(1,2), 1,2,5,8-tetrahydroxy-9,10-anthraquinone] | Reversible | 0.96(6) | < 10 | < 10 | -0.084(5) VNHE |  | -0.414(3) VNHE | -0.69(1) VNHE |  |  |  | 
O=C1c2c(O)ccc(O)c2C(=O)c2c(O)ccc(O)c21 [AQTH(1,4), 1,4,5,8-tetrahydroxy-9,10-anthraquinone] | Reversible | 1.2(1) | < 10 | < 10 | 0.200(4) VNHE |  |  |  |  |  |  | E0' more negative compared to AQDH(1,4) ([1]; alkaline): approximately 100 mV; solubility compared to AQDH(1,4) ([2]; alkaline): only half the solubility
Cc1cc(O)c2c(c1)C(=O)c1cc(O)cc(O)c1C2=O [AQTrHM, 1,3,8-trihydroxy-6-methylanthracene-9,10-dione] |  | 0.2(2) | < 10 | < 10 | -0.04(1) VNHE | Reversible | -0.386(2) VNHE | -0.63(1) VNHE | 0.15(4) | 0.19(6) |  | 
O=C1C=C(O)C(=O)C=C1O [BQ(1,4)DH, 2,5-dihydroxy-1,4-benzoquinone] |  | 0.8(1) | < 10 | < 10 | 0.382(4) VNHE and 0.38 VNHE | Quasireversible |  |  | 0.87(4) | 1.1(2) |  | reduction of E0' compared to the parent BQ compound ([1]; pH 0): 300 mV; pH dependence (slope) of E0' [1]: ~−90 mV/pH unit
O=C1C(O)=C(Cl)C(=O)C(O)=C1Cl [BQ(1,4)DHDCl, 2,5-dichloro-3,6-1,4-benzoquinone] | Quasireversble | 0.8(2) | < 10 | 10 (≈ 2090 µg/mL) | 0.394(1) VNHE |  |  |  | 1.3(1) | 1.2(4) | < 10 | change of E0' from acidic (pH 0) to alkaline (pH 13) [1]: 0.99 V; Electrochemical reversibility ([1]; pH 0): Reversible; pH dependence (slope) of E0' [1]: −76 mV/pH unit; Electrochemical reversibility ([1]; pH 7): Quasireversble; aqueous solubility, qualitative [2, 7]: insoluble in water
O=C1C(O)=C(O)C(=O)C(O)=C1O [BQ(1,4)TH, Tetrahydroxy-1,4-benzoquinone] | Quasireversible |  | < 10 | < 10 | 0.28 VNHE | completely loses its electrochemical activity |  |  |  |  | < 10 | Electrochemical reversibility ([1]; pH 6.2): Quasireversible
Oc1ccccc1O [HQ(1,2), Ortho hydroquinone] | Irreversible |  |  |  |  |  |  |  |  |  |  | Electrochemical reversibility ([1]; pH 0): Quasireversible; Electrochemical reversibility ([1]; pH 7): Quasireversible
O=S(=O)(O)c1cc(O)c(O)c(S(=O)(=O)O)c1 [HQ(1,2)DS, 4,5-dihydroxy-1,3-benzenedisulfonate disodium monohydrate] |  |  |  |  | 0.86(3) VNHE | Quasireversible | 0.7 VNHE |  | 0.4(1) |  |  | reduction/oxidation peak ratio ([1]; all pH values): significantly low; increase of E0' relative to ortho-BQ ([1]; two sulfonate groups): 50 mV
Oc1ccc(O)cc1 [HQ(1,4), Para hydroquinone] |  |  |  |  | 0.669(5) VNHE |  | 0.433(7) VNHE | 0.11(1) VNHE | 2.3(1) | 1.2(3) |  | Electrochemical reversibility ([1]; pH 0): Quasireversible; Electrochemical reversibility ([1]; pH 7): Quasireversible
O=S(=O)([O-])c1cc(O)ccc1O.[K+] [HQ(1,4)S, 2,5-dihydroxybenzenesulfonate potassium] |  |  |  |  | 0.664(8) VNHE | Quasireversible | 0.471(4) VNHE | -0.07(1) VNHE |  |  |  | 
Oc1c(Cl)c(Cl)c(O)c(Cl)c1Cl [HQ(1,4)TCl, Tetrachloro hydroquinone] |  |  |  |  | 0.70(1) VNHE | Quasireversible | 0.277(1) VNHE | 0.08(1) VNHE | 0.72(5) | 1.1(2) |  | aqueous solubility, qualitative [2]: insoluble in water; solubility [2]: < 10 mM; solubility [2, 8]: < 10 mM; solubility [2, 9]: < 10 mM
Oc1c(F)c(F)c(O)c(F)c1F [HQ(1,4)TF, 1,2,4,5-tetrafluoro-3,6-dihydroxybenzene] |  | 0.2(1) |  | 10 (≈ 1820 µg/mL) | 0.707(4) VNHE | Quasireversible | 0.23(7) VNHE | -0.05(6) VNHE | 0.5(1) | 0.21(7) |  | 
O=C1C=C(S(=O)(=O)O)c2ccccc2C1=O [NQ(1,2)S, 1,2-naphtoquinone-4-sulfonate sodium] |  | 0.9(1) |  | ~10 | 0.55(1) VNHE | Quasireversible | 0.24(1) VNHE |  | 0.8(1) | 0.52(3) | 900 | 
O=C1C(Cl)=C(Cl)C(=O)c2c(O)ccc(O)c21 [NQ(1,4)DHDCl, 2,3-dichloro-5,8-dihydroxy-1,4-naphtoquinone] |  |  | < 10 | < 10 |  | electrochemically irreversible |  | ≈ 0.4 VNHE |  |  | < 10 | aqueous solubility, qualitative [2, 7]: insoluble in water
O=C1C=C(O)C(=O)c2ccccc21 [NQ(1,4)H, 2-hydroxy-1,4-naphtoquinone] | seemingly reversible | 0.73(6) | < 10 | < 10 | 0.308(4) VNHE | Quasireversible |  |  | 0.81(8) | 1.2(3) | 820 (≈ 143000 µg/mL) | change of E0' from acidic (pH 0) to alkaline (pH 13) [1]: 0.8 V; pH dependence (slope) of E0' [1]: 67 mV/pH unit
CC(C)=CCC1=C(O)C(=O)c2ccccc2C1=O [NQ(1,4)HB, 2-hydroxy-3-(3-methyl-2-butenyl)-1,4-naphthoquinone] | Quasireversible | 0.38(4) | < 10 | < 10 | 0.333(3) VNHE |  |  |  |  | 1.08(5) | 700 (≈ 170000 µg/mL) | change of E0' from acidic (pH 0) to alkaline (pH 13) [1]: 0.8 V; Electrochemical reversibility ([1]; pH 0): Quasireversible; pH dependence (slope) of E0' [1]: 67 mV/pH unit; Electrochemical reversibility ([1]; pH 7): Reversible
c1ccc2nc3ccccc3nc2c1 [Phenazine] |  |  |  |  | 0.403(3) VNHE |  | Unstable | Unstable |  |  |  | solubility [2]: < 10 mM; solubility [2, 8]: 10 mM (≈ 1800 µg/mL); solubility [2, 9]: < 10 mM
c1cnccn1 [Pyrazine, 1,4-diazine] |  |  | ~7000 (≈ 561000 µg/mL) | ~7000 (≈ 561000 µg/mL) | -0.013(2) VNHE |  | Unstable | Unstable |  |  | ~7000 (≈ 561000 µg/mL) | 
O=C1C=CC(=O)C=C1 [para-BQ] |  |  |  |  |  |  |  | 0.11 VNHE |  |  |  | pH dependence (slope) of E0' [1]: −45 mV/pH unit
